Measurements as given in patent publication US10961200B2, “Small molecule inhibitors of lactate dehydrogenase and methods of use thereof” (THE UNITED STATES OF AMERICA, AS REPRESENTED BY THE …, priority 2014, dated 2021).

Tests used:
Human LDHA = Human LDHA (Homo sapiens (Human), UniProt P00338); test: human LDHA primary biochemical assay (resazurin/diaphorase coupled, fluorescence); settings: LDHA inhibitory activity, activity level based on IC50 (Table 7)
Excerpt: Test compounds were placed in a Greiner Bio-One (Monroe, N.C.) 1536-well black solid bottom assay plate. 200 millimolar (mM) Tris HCl, pH 7.4, 100 micromolar […] EDTA and 0.01% TWEEN-20™, final concentration, was used as the assay buffer. The LDHA reagent was 2 nanomolar (nM) Human LDHA (Meridian Life Science, Inc., Memphis, Tenn.), final concentration, in assay buffer.

MiaPaCa2 cells = test: cell-based HT lactate assay, colorimetric/fluorometric detection (inhibition of lactate production); settings: class symbols, 0 to 3 pluses

IC50 (Human LDHA) [µM]	IC50 (MiaPaCa2 cells; Homo sapiens, MIA PaCa-2) [µM]	Structure (SMILES)	IC50 (MiaPaCa2 cells) [µM]
< 0.1		N[S+](=O)([O-])c1ccc(Cc2c(-c3ccc(F)c(C#CC4CCCC4)c3)nn(-c3nc(C(=O)O)cs3)c2CC2CC2)cc1 [Compound 430]	< 1
< 0.1		N[S+](=O)([O-])c1ccc(Cc2c(-c3ccc(F)c(C#CC4CC4)c3)nn(-c3nc(C(=O)O)cs3)c2CC2CC2)cc1 [Compound 433]	< 1
< 0.1		NS(=O)(=O)c1ccc(Cc2c(-c3ccc(F)c(C#CCC4CC4)c3)nn(-c3nc(C(=O)O)cs3)c2CC2CC2)cc1F [Compound 437]	< 1
0.1 to 1		N[S+](=O)([O-])c1cccc(Cc2c(-c3ccc(F)c(C#CC4CCCC4)c3)nn(-c3nc(C(=O)O)cs3)c2CC2CC2)c1 [Compound 438]	1 to 10
< 0.1		NS(=O)(=O)c1ccc(Cc2c(-c3ccc(F)c(C#CC(F)F)c3)nn(-c3nc(C(=O)O)cs3)c2CC2CC2)cc1F [Compound 440]	1 to 10
< 0.1	< 1	CC(F)C#Cc1cc(-c2nn(-c3nc(C(=O)O)cs3)c(CC3CC3)c2Cc2ccc([S+](N)(=O)[O-])c(F)c2)ccc1F (stereo not drawn) [Compound 443]	
< 0.1		CC(C)C#Cc1cc(-c2nn(-c3nc(C(=O)O)cs3)c(CC3CC3)c2Cc2ccc([S+](N)(=O)[O-])c(F)c2)ccc1F [Compound 445]	< 1
< 0.1	1 to 10	NS(=O)(=O)c1ccc(Cc2cn(-c3nc(C(=O)O)cs3)nc2-c2ccc(F)c(-c3cccc(F)c3)c2)cc1 [Compound 458, 2-(3-(3′,6-difluoro-[1,1′-biphenyl]-3-yl)-4-(4-sulfamoylbenzyl)-1H-pyrazol-1-yl)thiazole-4-carboxylic acid]	
< 0.1	< 1	Cc1ccc(-c2nn(-c3nc(C(=O)O)cs3)c(CC3CC3)c2Cc2ccc(S(N)(=O)=O)cc2)cc1OC1CCCC1 [Compound 467, 2-(3-(3-(cyclopentyloxy)-4-methylphenyl)-5-(cyclopropylmethyl)-4-(4-sulfamoylbenzyl)-1H-pyrazol-1-yl)thiazole-4-carboxylic acid]	
0.1 to 1	1 to 10	NS(=O)(=O)c1ccc(Cc2c(-c3cc(OC4CCCC4)ccc3F)nn(-c3nc(C(=O)O)cs3)c2CC2CC2)cc1 [Compound 468, 2-(3-(5-(cyclopentyloxy)-2-fluorophenyl)-5-(cyclopropylmethyl)-4-(4-sulfamoylbenzyl)-1H-pyrazol-1-yl)thiazole-4-carboxylic acid]	
< 0.1	1 to 10	NS(=O)(=O)c1ccc(Cc2c(-c3ccc(F)c(OCC4CCCO4)c3)nn(-c3nc(C(=O)O)cs3)c2CC2CC2)cc1F (stereo not drawn) [Compound 469, 2-(5-(cyclopropylmethyl)-3-(4-fluoro-3-((tetrahydrofuran-2-yl)methoxy)phenyl)-4-(3-fluoro-4-sulfamoylbenzyl)-1H-pyrazol-1-yl)thiazole-4-carboxylic acid]	
< 0.1	1 to 10	NS(=O)(=O)c1ccc(Cc2c(-c3ccc(F)c(OCC4CCOC4)c3)nn(-c3nc(C(=O)O)cs3)c2CC2CC2)cc1F (stereo not drawn) [Compound 470, 2-(5-(cyclopropylmethyl)-3-(4-fluoro-3-((tetrahydrofuran-3-yl)methoxy)phenyl)-4-(3-fluoro-4-sulfamoylbenzyl)-1H-pyrazol-1-yl)thiazole-4-carboxylic acid]	
< 0.1	< 1	NS(=O)(=O)c1ccc(Cc2c(-c3ccc(F)c(OCc4ccc(C(F)(F)F)o4)c3)nn(-c3nc(C(=O)O)cs3)c2CC2CC2)cc1F [Compound 473, 2-(5-(cyclopropylmethyl)-3-(4-fluoro-3-((5-(trifluoromethyl)furan-2-yl)methoxy)phenyl)-4-(3-fluoro-4-sulfamoylbenzyl)-1H-pyrazol-1-yl)thiazole-4-carboxylic Acid]	
< 0.1	1 to 10	COc1cccc(-c2cc(F)cc(-c3nn(-c4nc(C(=O)O)cs4)c(CC4CC4)c3Cc3ccc(S(N)(=O)=O)cc3)c2)c1 [Compound 478, 2-(5-(cyclopropylmethyl)-3-(5-fluoro-3′-methoxy-[1,1′-biphenyl]-3-yl)-4-(4-sulfamoylbenzyl)-1H-pyrazol-1-yl)thiazole-4-carboxylic Acid]	
< 0.1	< 1	NS(=O)(=O)c1ccc(Cc2c(-c3cc(F)cc(-c4ccc(F)cc4)c3)nn(-c3nc(C(=O)O)cs3)c2CC2CC2)cc1 [Compound 479, 2-(5-(cyclopropylmethyl)-3-(4′,5-difluoro-[1,1′-biphenyl]-3-yl)-4-(4-sulfamoylbenzyl)-1H-pyrazol-1-yl)thiazole-4-carboxylic Acid]	
< 0.1	< 1	NS(=O)(=O)c1ccc(Cc2c(-c3ccc(F)c(OCc4ccccc4)c3)nn(-c3nc(C(=O)O)cs3)c2CC2CC2)cc1 [Compound 480, 2-(3-(3-(benzyloxy)-4-fluorophenyl)-5-(cyclopropylmethyl)-4-(4-sulfamoylbenzyl)-1H-pyrazol-1-yl)thiazole-4-carboxylic Acid]	
< 0.1	1 to 10	NS(=O)(=O)c1ccc(Cc2c(-c3cccc(Oc4ccc(C(F)(F)F)cc4)c3)nn(-c3nc(C(=O)O)cs3)c2CC2CC2)cc1 [Compound 481, 2-(5-(cyclopropylmethyl)-4-(4-sulfamoylbenzyl)-3-(3-(4-(trifluoromethyl)phenoxy)-phenyl)-1H-pyrazol-1-yl)thiazole-4-carboxylic Acid]	
< 0.1	1 to 10	NS(=O)(=O)c1ccc(Cc2c(-c3cccc(OCc4ccccc4)c3)nn(-c3nc(C(=O)O)cs3)c2C2CC2)cc1 [Compound 501, 2-(3-(3-(benzyloxy)phenyl)-5-cyclopropyl-4-(4-sulfamoylbenzyl)-1H-pyrazol-1-yl)thiazole-4-carboxylic acid]	
< 0.1	1 to 10	NS(=O)(=O)c1ccc(Cc2c(-c3cccc(Oc4ccccc4)c3)nn(-c3nc(C(=O)O)cs3)c2C2CC2)cc1 [Compound 502, 2-(5-cyclopropyl-3-(3-phenoxyphenyl)-4-(4-sulfamoylbenzyl)-1H-pyrazol-1-yl)thiazole-4-carboxylic acid]	
< 0.1	1 to 10	NS(=O)(=O)c1ccc(Cc2c(-c3cccc(Oc4ccccc4)c3)nn(-c3nc(C(=O)O)cs3)c2CC2CC2)cc1 [Compound 503, 2-(5-(cyclopropylmethyl)-3-(3-phenoxyphenyl)-4-(4-sulfamoylbenzyl)-1H-pyrazol-1-yl)thiazole-4-carboxylic Acid]	
< 0.1	1 to 10	Cc1cc(-c2cccc(F)c2)cc(-c2nn(-c3nc(C(=O)O)cs3)c(CC3CC3)c2Cc2ccc(S(N)(=O)=O)cc2)c1 [Compound 505, 2-(5-(cyclopropylmethyl)-3-(3′-fluoro-5-methyl-[1,1′-biphenyl]-3-yl)-4-(4-sulfamoylbenzyl)-1H-pyrazol-1-yl)thiazole-4-carboxylic Acid]	
< 0.1	1 to 10	Cc1cc(-c2ccc(F)cc2)cc(-c2nn(-c3nc(C(=O)O)cs3)c(CC3CC3)c2Cc2ccc(S(N)(=O)=O)cc2)c1 [Compound 506, 2-(5-(cyclopropylmethyl)-3-(4′-fluoro-5-methyl-[1,1′-biphenyl]-3-yl)-4-(4-sulfamoylbenzyl)-1H-pyrazol-1-yl)thiazole-4-carboxylic Acid]	
< 0.1	1 to 10	NS(=O)(=O)c1ccc(Cc2c(-c3cccc(Oc4ccc(F)cc4)c3)nn(-c3nc(C(=O)O)cs3)c2CC2CC2)cc1 [Compound 507, 2-(5-(cyclopropylmethyl)-3-(3-(4-fluorophenoxy)phenyl)-4-(4-sulfamoylbenzyl)-1H-pyrazol-1-yl)thiazole-4-carboxylic Acid]	
< 0.1	1 to 10	NS(=O)(=O)c1ccc(Cc2c(-c3ccc(F)c(Oc4ccccc4)c3)nn(-c3nc(C(=O)O)cs3)c2CC2CC2)cc1 [Compound 508, 2-(5-(cyclopropylmethyl)-3-(4-fluoro-3-phenoxyphenyl)-4-(4-sulfamoylbenzyl)-1H-pyrazol-1-yl)thiazole-4-carboxylic Acid]	

Structure (SMILES)	IC50 (Human LDHA) [µM]	IC50 (MiaPaCa2 cells; Homo sapiens, MIA PaCa-2) [µM]	IC50 (MiaPaCa2 cells) [µM]
CCOC(=O)c1csc(-n2nc(-c3ccc(F)c(C#CC4CCCC4)c3)c(Cc3ccc([S+](N)(=O)[O-])cc3)c2CC2CC2)n1 [Compound 429]	1 to 57		> 57
N[S+](=O)([O-])c1ccc(Cc2c(-c3ccc(F)c(C#CC4CCCC4)c3)nn(-c3nc(C(=O)O)cs3)c2C2CC2)cc1F [Compound 431]	< 0.1		< 1
N[S+](=O)([O-])c1ccc(Cc2c(-c3cccc(C#CC4CCCC4)c3)nn(-c3nc(C(=O)O)cs3)c2CC2CC2)cc1F [Compound 432]	< 0.1		< 1
CCOC(=O)c1csc(-n2nc(-c3ccc(F)c(C#CC4CCCC4)c3)c(Cc3ccc(S(N)(=O)=O)c(F)c3)c2C2CC2)n1 [Compound 434]	1 to 57		> 57
CCOC(=O)c1csc(-n2nc(-c3ccc(F)c(C#CC4CC4)c3)c(Cc3ccc(S(N)(=O)=O)cc3)c2CC2CC2)n1 [Compound 435]	1 to 57		> 57
NS(=O)(=O)c1ccc(Cc2c(-c3ccc(F)c(C#CC4(F)CCCC4)c3)nn(-c3nc(C(=O)O)cs3)c2CC2CC2)cc1F [Compound 436]	< 0.1		< 1
N#CC#Cc1cc(-c2nn(-c3nc(C(=O)O)cs3)c(CC3CC3)c2Cc2ccc(S(N)(=O)=O)c(F)c2)ccc1F [Compound 442]	< 0.1		1 to 10
NS(=O)(=O)c1ccc(Cc2c(-c3ccc(F)c(C4=CCCC4)c3)nn(-c3nc(C(=O)O)cs3)c2CC2CC2)cc1F [Compound 444]	< 0.1		< 1
NS(=O)(=O)c1ccc(Cc2c(-c3ccc(F)c(C#CC4CCC4)c3)nn(-c3nc(C(=O)O)cs3)c2CC2CC2)cc1F [Compound 446]	< 0.1		< 1
